A word on the IC50: it is the midpoint of a concentration-inhibition curve.

The assay concerns the target Fatty acid synthase (Homo sapiens) (UniProt P49327). The assay is described as follows: FAS thioesterase domain inhibitors, dose response, biochemical, endpoint fluorescence intensity, uHTS hits (AID 624327). The conditions noted are these: recombinant FAS-TE, OMFH fluorogenic substrate.

Chain of Fatty acid synthase (Homo sapiens) (P49327 whole entry, looked up, the tested form may be a part): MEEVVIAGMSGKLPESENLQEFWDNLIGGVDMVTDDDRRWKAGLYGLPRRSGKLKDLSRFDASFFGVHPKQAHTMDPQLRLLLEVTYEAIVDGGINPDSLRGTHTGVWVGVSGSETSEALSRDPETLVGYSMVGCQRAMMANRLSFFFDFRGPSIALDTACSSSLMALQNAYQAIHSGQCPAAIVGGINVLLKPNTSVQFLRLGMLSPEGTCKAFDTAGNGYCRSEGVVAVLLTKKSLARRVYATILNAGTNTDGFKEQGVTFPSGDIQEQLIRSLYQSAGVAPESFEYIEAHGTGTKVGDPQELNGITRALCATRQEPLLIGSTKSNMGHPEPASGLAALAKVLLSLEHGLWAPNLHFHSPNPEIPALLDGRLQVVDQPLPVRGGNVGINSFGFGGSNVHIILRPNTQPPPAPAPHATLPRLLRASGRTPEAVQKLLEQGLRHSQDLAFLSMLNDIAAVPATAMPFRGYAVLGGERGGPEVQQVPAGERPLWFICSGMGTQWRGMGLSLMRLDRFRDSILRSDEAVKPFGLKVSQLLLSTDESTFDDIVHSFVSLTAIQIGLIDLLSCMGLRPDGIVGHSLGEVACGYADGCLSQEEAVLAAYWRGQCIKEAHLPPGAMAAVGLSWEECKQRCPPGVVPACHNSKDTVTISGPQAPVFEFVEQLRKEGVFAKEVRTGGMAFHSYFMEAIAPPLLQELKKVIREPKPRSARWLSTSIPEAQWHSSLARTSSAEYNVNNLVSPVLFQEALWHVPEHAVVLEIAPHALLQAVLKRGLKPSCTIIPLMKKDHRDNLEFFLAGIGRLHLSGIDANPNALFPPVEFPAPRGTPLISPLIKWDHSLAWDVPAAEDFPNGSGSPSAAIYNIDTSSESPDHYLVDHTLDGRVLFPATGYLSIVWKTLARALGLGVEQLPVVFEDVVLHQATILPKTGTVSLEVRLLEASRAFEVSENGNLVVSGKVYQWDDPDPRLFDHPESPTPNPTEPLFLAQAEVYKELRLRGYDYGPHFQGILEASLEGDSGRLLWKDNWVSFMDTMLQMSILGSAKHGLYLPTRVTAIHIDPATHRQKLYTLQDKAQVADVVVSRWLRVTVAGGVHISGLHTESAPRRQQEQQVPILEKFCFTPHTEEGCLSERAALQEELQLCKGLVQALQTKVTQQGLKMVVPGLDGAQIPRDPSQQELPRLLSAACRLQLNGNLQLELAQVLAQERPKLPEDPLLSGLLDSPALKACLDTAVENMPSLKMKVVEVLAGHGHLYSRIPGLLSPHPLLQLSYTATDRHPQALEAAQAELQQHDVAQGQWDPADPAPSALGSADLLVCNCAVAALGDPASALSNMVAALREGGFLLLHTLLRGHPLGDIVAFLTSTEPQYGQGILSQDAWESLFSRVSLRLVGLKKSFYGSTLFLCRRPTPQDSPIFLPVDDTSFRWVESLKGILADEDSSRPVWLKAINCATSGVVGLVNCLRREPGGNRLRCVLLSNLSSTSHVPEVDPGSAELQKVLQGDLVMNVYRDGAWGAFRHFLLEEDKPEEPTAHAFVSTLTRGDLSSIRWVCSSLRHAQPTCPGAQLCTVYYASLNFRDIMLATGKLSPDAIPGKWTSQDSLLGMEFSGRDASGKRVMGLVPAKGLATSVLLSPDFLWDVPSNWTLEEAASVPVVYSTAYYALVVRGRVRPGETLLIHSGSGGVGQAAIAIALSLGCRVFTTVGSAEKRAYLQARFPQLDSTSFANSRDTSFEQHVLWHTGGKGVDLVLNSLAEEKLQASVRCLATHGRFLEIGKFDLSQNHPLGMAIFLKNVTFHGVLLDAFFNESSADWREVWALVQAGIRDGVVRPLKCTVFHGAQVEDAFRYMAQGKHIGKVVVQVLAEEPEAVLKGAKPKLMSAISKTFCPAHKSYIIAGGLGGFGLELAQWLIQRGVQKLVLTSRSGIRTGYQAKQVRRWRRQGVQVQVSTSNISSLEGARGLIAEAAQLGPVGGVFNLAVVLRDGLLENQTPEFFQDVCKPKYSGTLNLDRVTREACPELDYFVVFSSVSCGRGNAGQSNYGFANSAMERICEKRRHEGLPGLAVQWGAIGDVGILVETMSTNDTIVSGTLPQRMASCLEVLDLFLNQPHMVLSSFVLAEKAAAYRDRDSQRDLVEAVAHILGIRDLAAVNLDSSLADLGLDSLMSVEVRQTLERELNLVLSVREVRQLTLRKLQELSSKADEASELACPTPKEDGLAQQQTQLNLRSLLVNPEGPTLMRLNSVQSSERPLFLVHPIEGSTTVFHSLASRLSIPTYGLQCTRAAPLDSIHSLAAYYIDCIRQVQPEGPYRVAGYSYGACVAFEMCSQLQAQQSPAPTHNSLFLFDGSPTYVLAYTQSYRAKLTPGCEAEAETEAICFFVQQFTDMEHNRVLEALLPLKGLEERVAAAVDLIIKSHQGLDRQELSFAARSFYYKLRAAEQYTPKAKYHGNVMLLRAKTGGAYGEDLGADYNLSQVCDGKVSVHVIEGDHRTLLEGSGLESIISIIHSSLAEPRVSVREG

For the compound `Oc1ccc(Cl)cc1Sc1cc(Cl)ccc1O`, the IC50 was 3.55 µM. Take `COc1ccc(/C=C(\NC(=O)c2ccc([N+](=O)[O-])cc2)C(=O)NCCN2CCOCC2)cc1`: the IC50 is 5.25 µM. For the compound `CC(C)(C)c1nc2scc(-c3cccs3)c2c(=O)o1`, the IC50 was 3.39 µM.

`CN(C(=O)Nc1ccc(Cl)cc1Cl)[C@H]1c2cc(Br)ccc2OC[C@H]1CO`: the IC50 was 11 µM. Next, `CCN(CC(=O)NCc1cccs1)S(=O)(=O)c1ccc([N+](=O)[O-])cc1`: 17.7 µM. For the compound `CC1(C(=O)NS(=O)(=O)c2ccc(C#N)cc2)CCN1C(=O)c1ccc(C2CCCCC2)cc1` (stereo unspecified), the IC50 was 5.24 µM.

As for `O=S(=O)(c1ccc(-c2csc(-c3cccnc3)n2)cc1)N1CCCC1`, the IC50 is 1.51 µM. Next, `O=C(C[C@H]1C[C@H](C(=O)N2CCOCC2)[C@@]2(CCC3CCCC3)c3[nH]c4cc(-c5ccco5)ccc4c3CCN2C1=O)NCCc1ccccn1`: 6.97 µM.

Turning to `COc1ccccc1C(=O)Nc1nc(-c2ccc(S(=O)(=O)N3CCOCC3)cc2)cs1`, the 50% inhibitory concentration (IC50) was 11.8 µM.

As for `COc1ccc(NC(=O)CC2C(=O)N(C)C(=S)N2Cc2cccs2)cc1` (stereo unspecified), the IC50 was 15.8 µM. Next, `CCOC(=O)[C@]12Cc3ccccc3[C@H]1N(C1CCCCC1)C(=O)c1cc(OC)ccc12`: 8.27 µM; `CCCCC(=O)Nc1nc(-c2ccc(S(=O)(=O)N3CCOCC3)cc2)cs1`: 0.199 µM; `CCn1c(=O)c([N+](=O)[O-])c(N2CCN(Cc3ccc4c(c3)OCO4)CC2)c2ccccc21`: 1.83 µM. Consider `CCCC(C)c1nnc(NC(=O)c2cc(C(=O)OC)cc([N+](=O)[O-])c2)s1` (stereo unspecified), for which the half-maximal inhibitory concentration (IC50) is 7.12 µM.

As to `N/C(=N\OC(=O)CCCc1ccccc1)c1cccc([N+](=O)[O-])c1`, the IC50 is 12 µM. Next, `O=C(Nc1nnc(SCc2ccccc2Cl)s1)c1cccc([N+](=O)[O-])c1`: 11.4 µM; `O=C(CC(c1ccccc1)c1ccccc1)NCC(O)c1ccc([N+](=O)[O-])cc1` (stereo unspecified): 13.5 µM. For `O=S(=O)(c1ccc(-c2csc(-c3cccnc3)n2)cc1)N1CCOCC1` the value was 2.14 µM; for `O=C(Nc1nc(-c2ccc(S(=O)(=O)N3CCCC3)cc2)cs1)C1COc2ccccc2O1` (stereo unspecified), 1.31 µM; for `CC(C)(C)OC(=O)NCCCC[C@H](NC(=O)c1nc[nH]c1C(=O)NC1CCN(C(=O)OC(C)(C)C)CC1)C(=O)OC(C)(C)C`, 1.56 µM. For `CN(C)S(=O)(=O)c1ccc(-c2csc(-c3cccnc3)n2)cc1`, the 50% inhibitory concentration (IC50) is 5.21 µM. For `O=S(=O)(c1ccc(-c2csc(-c3cccnc3)n2)cc1)N1CCCCC1` the value was 2.68 µM; for `CCC(C)(C)C1CCC(=NNS(=O)(=O)c2ccc(C)c([N+](=O)[O-])c2)CC1` (stereo unspecified), 17.9 µM. Next, `O=C(CN1C(=O)c2cccc([N+](=O)[O-])c2C1=O)N1CCc2ccccc2C1`: 9.44 µM. For `COCc1cc(C)nc(SCC[N+](C)(C)CC(=O)Nc2ccccc2)c1C#N` the value was 12.3 µM. In the case of `CCc1nc2c(OCc3ccc(C(F)(F)F)cc3)cccn2c1N(C=O)Cc1ccc(OC)cc1`, the concentration for half-maximal inhibition (IC50) was 9.2 µM. Next, `COC(=O)c1cc(C(=O)NC(C)C2CC3CCC2C3)cc([N+](=O)[O-])c1` (stereo unspecified): 11.6 µM. Regarding `O=C(OCc1ccc([N+](=O)[O-])cc1)c1cc([N+](=O)[O-])ccc1N1CCOCC1`, the IC50 was 2.72 µM.

For `O=C(COc1ccccc1)Nc1nc(-c2ccc(S(=O)(=O)N3CCOCC3)cc2)cs1`, the half-inhibitory concentration (IC50) was 0.417 µM. For the compound `COc1ccc2cc3cc(C(=O)N4CC(C)CC(C)C4)oc3nc2c1` (stereo unspecified), the IC50 is 3.85 µM. Next, `CNS(=O)(=O)c1ccc2c(c1)C(=O)c1cc(S(=O)(=O)NC)ccc1CC2`: 0.861 µM. In the case of `O=C(COc1ccc2c(-c3ccccc3)cc(=O)oc2c1)N[C@@H](Cc1c[nH]c2ccc(O)cc12)C(=O)O`, the IC50 was 6.86 µM. For `COc1ccc(CNC(=O)/C=C/c2cc([N+](=O)[O-])ccc2OC(F)F)cc1OC`, the IC50 is 3.26 µM. For `O=S(=O)(c1ccc(-c2csc(Nc3ccc(F)cc3)n2)cc1)N1CCCC1` the value was 14.8 µM. For `CCCc1cc(C(=O)Nc2cccc([N+](=O)[O-])c2)cs1` the value was 8.69 µM. For `O=C(Nc1nc(-c2ccc(S(=O)(=O)N3CCCC3)cc2)cs1)c1ccco1` the value was 4.68 µM; for `O=C(c1ccc(Cl)c([N+](=O)[O-])c1)N1CCN(c2ccccc2)CC1`, 12 µM; for `Cc1cccc(N2CCN(C(=O)CNC(=O)c3cccc([N+](=O)[O-])c3)CC2)c1C`, 1.52 µM. As to `Cc1cc(C(=O)N/N=C/c2cc([N+](=O)[O-])cc(C)c2O)n[nH]1`, the IC50 was 11.7 µM. Next, `CC(C)(C)OC(=O)NCCCC[C@H](NC(=O)c1nc[nH]c1C(=O)NCC(=O)OCc1ccccc1)C(=O)OC(C)(C)C`: < 0.16 µM; `Cc1ccc(NC(=O)NNC(=O)Cn2nc(-c3ccccc3)c(-c3ccccc3)c(C#N)c2=O)cc1`: 4.69 µM.
